Measurements: patent US20260234135A1, “CRYSTALLINE FORMS OR SALTS OF A DEUTERATED COMPOUND” (ALEBUND PHARMACEUTICALS (HONG KONG) LIMITED, priority 2023, published 2026)
Like-named read-outs stand apart in the source and are kept apart here.

Legend:
[1] = Hygroscopicity evaluation by DVS at 25° C.; format: physicochemical; conditions: for Form change after DVS test: XRPD after DVS
Method: DVS was measured via a SMS (Surface Measurement Systems) DVS Intrinsic. The relative humidity at 25° C. were calibrated against deliquescence point of LiCl, Mg(NO3)2 and KCl.

[2] = 60° C./close and 40° C./75% RH/open for 2/4/8 weeks

## [2H]C([2H])(Cc1nc(-c2ccccc2)oc1C)Oc1ccc(C[C@H](OC)C(=O)O)c2sccc12 [free acid Form E]
40° C./75% RH, 2 weeks
  Area (%) of impurity peak RRT 0.88: 0.33%
  Area (%) of impurity peak RRT 1.14: 0.15%
  Area (%) of impurity peak RRT 1.28: 0.18%
  Area (%) of impurity peak RRT 1.33: 0.25%
40° C./75% RH, 4 weeks
  Area (%) of impurity peak RRT 0.88: 0.35%
  Area (%) of impurity peak RRT 1.14: 0.15%
  Area (%) of impurity peak RRT 1.28: 0.23%
  Area (%) of impurity peak RRT 1.33: 0.27%
40° C./75% RH, 8 weeks
  Area (%) of impurity peak RRT 0.88: 0.32%
  Area (%) of impurity peak RRT 1.14: 0.13%
  Area (%) of impurity peak RRT 1.28: 0.20%
  Area (%) of impurity peak RRT 1.33: 0.27%
40° C./75% RH/open, 2 weeks
  HPLC Purity (area %), main peak RRT 1.00: 99.08 area %
  HPLC Reults of initial (%): 100.07%
40° C./75% RH/open, 4 weeks
  HPLC Purity (area %), main peak RRT 1.00: 99.00 area %
  HPLC Reults of initial (%): 99.99%
40° C./75% RH/open, 8 weeks
  HPLC Purity (area %), main peak RRT 1.00: 99.03 area %
  HPLC Reults of initial (%): 100.02%
60° C., 2 weeks
  Area (%) of impurity peak RRT 0.88: 0.32%
  Area (%) of impurity peak RRT 1.14: 0.16%
  Area (%) of impurity peak RRT 1.28: 0.23%
  Area (%) of impurity peak RRT 1.33: 0.25%
60° C., 4 weeks
  Area (%) of impurity peak RRT 0.88: 0.38%
  Area (%) of impurity peak RRT 1.14: 0.17%
  Area (%) of impurity peak RRT 1.28: 0.26%
  Area (%) of impurity peak RRT 1.33: 0.29%
60° C., 8 weeks
  Area (%) of impurity peak RRT 0.88: 0.34%
  Area (%) of impurity peak RRT 1.14: 0.14%
  Area (%) of impurity peak RRT 1.28: 0.23%
  Area (%) of impurity peak RRT 1.33: 0.27%
[2]
  Form or purity change after storage: No form or purity decrease
60° C./close, 2 weeks
  HPLC Purity (area %), main peak RRT 1.00: 99.04 area %
  HPLC Reults of initial (%): 100.03%
60° C./close, 4 weeks
  HPLC Purity (area %), main peak RRT 1.00: 98.89 area %
  HPLC Reults of initial (%): 99.88%
60° C./close, 8 weeks
  HPLC Purity (area %), main peak RRT 1.00: 98.96 area %
  HPLC Reults of initial (%): 99.95%
Initial
  Area (%) of impurity peak RRT 0.88: 0.31%
  Area (%) of impurity peak RRT 1.14: 0.16%
  Area (%) of impurity peak RRT 1.28: 0.26%
  Area (%) of impurity peak RRT 1.33: 0.25%
  HPLC Purity (area %), main peak RRT 1.00: 99.01 area %

## N=C(N)NCCCC(N)C(=O)O.[2H]C([2H])(Cc1nc(-c2ccccc2)oc1C)Oc1ccc(C[C@H](OC)C(=O)O)c2sccc12 [arginine salt Form A]
[1]; DVS, 25° C.
  Hygroscopicity: slightly hygroscopicity
  Water uptake up to 80% RH: 0.5%
[1]
  Form change after DVS test: No form change
40° C./75% RH, 2 weeks
  Area (%) of impurity peak RRT 0.88: 0.14%
  Area (%) of impurity peak RRT 1.14: 0.06%
  Area (%) of impurity peak RRT 1.34: 0.22%
40° C./75% RH, 4 weeks
  Area (%) of impurity peak RRT 0.88: 0.11%
  Area (%) of impurity peak RRT 1.34: 0.19%
40° C./75% RH, 8 weeks
  Area (%) of impurity peak RRT 0.88: 0.07%
  Area (%) of impurity peak RRT 1.34: 0.19%
40° C./75% RH/open, 2 weeks
  HPLC Purity (area %), main peak RRT 1.00: 99.59 area %
  HPLC Reults of initial (%): 99.87%
40° C./75% RH/open, 4 weeks
  HPLC Purity (area %), main peak RRT 1.00: 99.70 area %
  HPLC Reults of initial (%): 99.98%
40° C./75% RH/open, 8 weeks
  HPLC Purity (area %), main peak RRT 1.00: 99.74 area %
  HPLC Reults of initial (%): 100.02%
60° C., 2 weeks
  Area (%) of impurity peak RRT 0.88: 0.06%
  Area (%) of impurity peak RRT 1.34: 0.18%
60° C., 4 weeks
  Area (%) of impurity peak RRT 0.88: 0.09%
  Area (%) of impurity peak RRT 1.34: 0.18%
60° C., 8 weeks
  Area (%) of impurity peak RRT 0.81: 0.05%
  Area (%) of impurity peak RRT 0.88: 0.06%
  Area (%) of impurity peak RRT 1.34: 0.18%
[2]
  Form or purity change after storage: No form or purity decrease
60° C./close, 2 weeks
  HPLC Purity (area %), main peak RRT 1.00: 99.76 area %
  HPLC Reults of initial (%): 100.04%
60° C./close, 4 weeks
  HPLC Purity (area %), main peak RRT 1.00: 99.73 area %
  HPLC Reults of initial (%): 100.01%
60° C./close, 8 weeks
  HPLC Purity (area %), main peak RRT 1.00: 99.71 area %
  HPLC Reults of initial (%): 99.99%
Initial
  Area (%) of impurity peak RRT 0.88: 0.07%
  Area (%) of impurity peak RRT 1.34: 0.20%
  HPLC Purity (area %), main peak RRT 1.00: 99.72 area %

## [2H]C([2H])(Cc1nc(-c2ccccc2)oc1C)Oc1ccc(C[C@H](OC)C(=O)[O-])c2sccc12.[K+] [K salt Form C]
[1]; DVS, 25° C.
  Water uptake up to 80% RH: 12.0%
[1]
  Form change after DVS test: form change was observed
40° C./75% RH, 2 weeks
  Area (%) of impurity peak RRT 1.34: 0.24%
40° C./75% RH, 4 weeks
  Area (%) of impurity peak RRT 1.34: 0.25%
40° C./75% RH, 8 weeks
  Area (%) of impurity peak RRT 1.34: 0.25%
40° C./75% RH/open, 2 weeks
  HPLC Purity (area %), main peak RRT 1.00: 99.76 area %
  HPLC Reults of initial (%): 100.01%
40° C./75% RH/open, 4 weeks
  HPLC Purity (area %), main peak RRT 1.00: 99.75 area %
  HPLC Reults of initial (%): 100.00%
40° C./75% RH/open, 8 weeks
  HPLC Purity (area %), main peak RRT 1.00: 99.75 area %
  HPLC Reults of initial (%): 100.00%
60° C., 2 weeks
  Area (%) of impurity peak RRT 0.88: 0.10%
  Area (%) of impurity peak RRT 1.14: 0.07%
  Area (%) of impurity peak RRT 1.34: 0.26%
60° C., 4 weeks
  Area (%) of impurity peak RRT 0.88: 0.08%
  Area (%) of impurity peak RRT 1.14: 0.04%
  Area (%) of impurity peak RRT 1.34: 0.24%
60° C., 8 weeks
  Area (%) of impurity peak RRT 0.88: 0.09%
  Area (%) of impurity peak RRT 1.34: 0.24%
[2]
  Form or purity change after storage: No purity decrease but form change
60° C./close, 2 weeks
  HPLC Purity (area %), main peak RRT 1.00: 99.57 area %
  HPLC Reults of initial (%): 99.82%
60° C./close, 4 weeks
  HPLC Purity (area %), main peak RRT 1.00: 99.64 area %
  HPLC Reults of initial (%): 99.89%
60° C./close, 8 weeks
  HPLC Purity (area %), main peak RRT 1.00: 99.67 area %
  HPLC Reults of initial (%): 99.92%
Initial
  Area (%) of impurity peak RRT 1.34: 0.25%
  HPLC Purity (area %), main peak RRT 1.00: 99.75 area %

## [2H]C([2H])(Cc1nc(-c2ccccc2)oc1C)Oc1ccc(C[C@H](OC)C(=O)[O-])c2sccc12.[Na+] [Na salt Form A]
[1]; DVS, 25° C.
  Water uptake up to 80% RH: 5.5%
[1]
  Form change after DVS test: form change was observed
40° C./75% RH, 2 weeks
  Area (%) of impurity peak RRT 0.89: 0.04%
  Area (%) of impurity peak RRT 1.14: 0.03%
  Area (%) of impurity peak RRT 1.34: 0.23%
40° C./75% RH, 4 weeks
  Area (%) of impurity peak RRT 0.89: 0.07%
  Area (%) of impurity peak RRT 1.34: 0.23%
40° C./75% RH, 8 weeks
  Area (%) of impurity peak RRT 0.89: 0.05%
  Area (%) of impurity peak RRT 1.34: 0.24%
40° C./75% RH/open, 2 weeks
  HPLC Purity (area %), main peak RRT 1.00: 99.71 area %
  HPLC Reults of initial (%): 100.03%
40° C./75% RH/open, 4 weeks
  HPLC Purity (area %), main peak RRT 1.00: 99.69 area %
  HPLC Reults of initial (%): 100.02%
40° C./75% RH/open, 8 weeks
  HPLC Purity (area %), main peak RRT 1.00: 99.71 area %
  HPLC Reults of initial (%): 100.03%
60° C. for 8 weeks
  Form or purity change after storage: Slightly purity decrease and form change
60° C., 2 weeks
  Area (%) of impurity peak RRT 0.58: 0.10%
  Area (%) of impurity peak RRT 0.79: 0.07%
  Area (%) of impurity peak RRT 0.81: 0.10%
  Area (%) of impurity peak RRT 0.89: 0.08%
  Area (%) of impurity peak RRT 0.91: 0.05%
  Area (%) of impurity peak RRT 1.14: 0.05%
  Area (%) of impurity peak RRT 1.34: 0.22%
60° C., 4 weeks
  Area (%) of impurity peak RRT 0.29: 0.07%
  Area (%) of impurity peak RRT 0.58: 0.16%
  Area (%) of impurity peak RRT 0.63: 0.05%
  Area (%) of impurity peak RRT 0.79: 0.13%
  Area (%) of impurity peak RRT 0.81: 0.20%
  Area (%) of impurity peak RRT 0.86: 0.06%
  Area (%) of impurity peak RRT 0.89: 0.08%
  Area (%) of impurity peak RRT 0.91: 0.10%
  Area (%) of impurity peak RRT 0.95: 0.05%
  Area (%) of impurity peak RRT 1.34: 0.20%
60° C., 8 weeks
  Area (%) of impurity peak RRT 0.29: 0.11%
  Area (%) of impurity peak RRT 0.58: 0.25%
  Area (%) of impurity peak RRT 0.63: 0.12%
  Area (%) of impurity peak RRT 0.79: 0.19%
  Area (%) of impurity peak RRT 0.81: 0.35%
  Area (%) of impurity peak RRT 0.86: 0.06%
  Area (%) of impurity peak RRT 0.91: 0.21%
  Area (%) of impurity peak RRT 0.95: 0.09%
  Area (%) of impurity peak RRT 1.34: 0.20%
60° C./close, 2 weeks
  HPLC Purity (area %), main peak RRT 1.00: 99.33 area %
  HPLC Reults of initial (%): 99.65%
60° C./close, 4 weeks
  HPLC Purity (area %), main peak RRT 1.00: 98.91 area %
  HPLC Reults of initial (%): 99.23%
60° C./close, 8 weeks
  HPLC Purity (area %), main peak RRT 1.00: 98.43 area %
  HPLC Reults of initial (%): 98.75%
Initial
  Area (%) of impurity peak RRT 0.89: 0.05%
  Area (%) of impurity peak RRT 1.14: 0.05%
  Area (%) of impurity peak RRT 1.34: 0.22%
  HPLC Purity (area %), main peak RRT 1.00: 99.68 area %
XRPD after 40° C./75% RH/open, 2/4/8 weeks
  Form: New form
